Test results reported in PubChem BioAssay (NCI).
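A five-concentration, 48-hour dose response in 96-well plates underlies each endpoint, interpolated linearly between surrounding concentrations. GI50: concentration for 50% inhibition of growth. TGI: total growth inhibition.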

Assays:
Experiment in all cases: NCI-60 cell line screen, 48 h
[1] = tested on: MDA-MB-435
[2] = tested on: SNB-75 CNS
[3] = tested on: K-562 leukemia
[4] = tested on: EKVX NSCLC
[5] = tested on: 786-0 renal
[6] = tested on: CAKI-1 renal
[7] = tested on: UACC-257 melanoma
[8] = tested on: DU-145 prostate
[9] = tested on: NCI-H460 lung
[10] = tested on: HCT-116 colon
[11] = tested on: TK-10 renal
[12] = tested on: MDA-MB-468 breast
[13] = tested on: HS 578T breast
[14] = tested on: MDA-MB-231 breast
[15] = tested on: SF-539 CNS
[16] = tested on: BT-549 breast
[17] = tested on: RXF 393 renal
[18] = tested on: SF-268 CNS
[19] = tested on: OVCAR-8 ovarian
[20] = tested on: HT29 colon
[21] = tested on: LOX IMVI melanoma
[22] = tested on: OVCAR-5 ovarian
[23] = tested on: RPMI-8226 leukemia
[24] = tested on: MOLT-4 leukemia
[25] = tested on: COLO 205 colon
[26] = tested on: A549 NSCLC
[27] = tested on: MCF7 breast
[28] = tested on: OVCAR-3 ovarian
[29] = tested on: OVCAR-4 ovarian
[30] = tested on: SK-MEL-5 melanoma
[31] = tested on: NCI-H226 lung
[32] = tested on: MALME-3M melanoma
[33] = tested on: IGROV1 ovarian
[34] = tested on: SK-OV-3 ovarian
[35] = tested on: M14 melanoma
[36] = tested on: HOP-92 NSCLC
[37] = tested on: NCI-H23 lung
[38] = tested on: HL-60(TB) leukemia
[39] = tested on: SN12C renal
[40] = tested on: A498 renal
[41] = tested on: SF-295 CNS
[42] = tested on: HOP-62 NSCLC
[43] = tested on: SK-MEL-28 melanoma
[44] = tested on: SK-MEL-2 melanoma
[45] = tested on: ACHN renal
[46] = tested on: KM12 colon
[47] = tested on: UO-31 renal
[48] = tested on: HCC-2998 colon
[49] = tested on: U251 CNS
[50] = tested on: CCRF-CEM leukemia
[51] = tested on: SW-620 colon
[52] = tested on: HCT-15 colon
[53] = tested on: UACC-62 melanoma
[54] = tested on: SNB-19 CNS
[55] = tested on: NCI/ADR-RES ovarian
[56] = tested on: NCI-H522 lung
[57] = tested on: T-47D breast
[58] = tested on: PC-3 prostate
[59] = tested on: SR leukemia

## CN(C)CCOc1ccc(C(=O)C2[C@H](c3ccc(Cl)cc3)[C@@H](c3ccccc3)NC23C(=O)Nc2ccc(Br)cc23)cc1 (some centres not stated)
[1]
  GI50: 2.59 µM
  TGI: 4.84 µM
[2]
  GI50: 1.7 µM
  TGI: 5.81 µM
[3]
  GI50: 2.73 µM
  TGI: 9.03 µM
[4]
  GI50: 2.24 µM
  TGI: 4.4 µM
[5]
  GI50: 2.68 µM
  TGI: 4.95 µM
[6]
  GI50: 2.38 µM
  TGI: 4.54 µM
[7]
  GI50: 2.53 µM
  TGI: 4.94 µM
[8]
  GI50: 2.7 µM
  TGI: 5 µM
[9]
  GI50: 2.71 µM
  TGI: 5.22 µM
[10]
  GI50: 2.4 µM
  TGI: 4.82 µM
[11]
  GI50: 2.67 µM
  TGI: 5.61 µM
[12]
  GI50: 2.4 µM
  TGI: 4.68 µM
[13]
  GI50: 2.18 µM
  TGI: 6.88 µM
[14]
  GI50: 2.41 µM
  TGI: 4.59 µM
[15]
  GI50: 2.64 µM
  TGI: 4.89 µM
[16]
  GI50: 3 µM
  TGI: 5.82 µM
[17]
  GI50: 1.65 µM
  TGI: 3.61 µM
[18]
  GI50: 2.47 µM
  TGI: 5.46 µM
[19]
  GI50: 2.58 µM
  TGI: 5.01 µM
[20]
  GI50: 2.47 µM
  TGI: 5.2 µM
[21]
  GI50: 2.42 µM
  TGI: 4.61 µM
[22]
  GI50: 2.23 µM
  TGI: 4.34 µM
[23]
  GI50: 3.33 µM
  TGI: 8.37 µM
[24]
  GI50: 2.58 µM
  TGI: 6.53 µM
[25]
  GI50: 2.75 µM
  TGI: 5.37 µM
[26]
  GI50: 2.51 µM
  TGI: 4.85 µM
[27]
  GI50: 2.41 µM
  TGI: 5.05 µM
[28]
  GI50: 2.24 µM
  TGI: 4.57 µM
[29]
  GI50: 2.47 µM
  TGI: 4.91 µM
[30]
  GI50: 2.52 µM
  TGI: 4.71 µM
[31]
  GI50: 2.65 µM
  TGI: 5.6 µM
[32]
  GI50: 2.43 µM
  TGI: 4.81 µM
[33]
  GI50: 2.51 µM
  TGI: 4.79 µM
[34]
  GI50: 4.39 µM
  TGI: 16.3 µM
[35]
  GI50: 2.89 µM
  TGI: 5.45 µM
[36]
  GI50: 1.74 µM
  TGI: 3.8 µM
[37]
  GI50: 2.62 µM
  TGI: 5.03 µM
[38]
  GI50: 2.89 µM
  TGI: 6.75 µM
[39]
  GI50: 2.35 µM
  TGI: 4.55 µM
[40]
  GI50: 2.53 µM
  TGI: 4.99 µM
[41]
  GI50: 2.48 µM
  TGI: 4.68 µM
[42]
  GI50: 2.69 µM
  TGI: 5.56 µM
[43]
  GI50: 2.65 µM
  TGI: 4.88 µM
[44]
  GI50: 2.68 µM
  TGI: 5.16 µM
[45]
  GI50: 2.55 µM
  TGI: 4.77 µM
[46]
  GI50: 2.8 µM
  TGI: 5.46 µM
[47]
  GI50: 2.3 µM
  TGI: 4.63 µM
[48]
  GI50: 2.22 µM
  TGI: 4.39 µM
[49]
  GI50: 2.59 µM
  TGI: 4.96 µM
[50]
  GI50: 3.09 µM
  TGI: 7.86 µM
[51]
  GI50: 2.63 µM
  TGI: 5.17 µM
[52]
  GI50: 2.6 µM
  TGI: 4.95 µM
[53]
  GI50: 2.5 µM
  TGI: 4.74 µM
[54]
  GI50: 2.63 µM
  TGI: 4.94 µM
[55]
  GI50: 2.68 µM
  TGI: 5.07 µM
[56]
  GI50: 2.87 µM
  TGI: 5.56 µM
[57]
  GI50: 2.33 µM
  TGI: 5.18 µM
[58]
  GI50: 2.48 µM
  TGI: 4.94 µM

## O=C1NC(=S)S/C1=C\c1cn(-c2ccccc2)nc1-c1ccc([N+](=O)[O-])cc1
[1]
  GI50: 2.86 µM
  TGI: 11.7 µM
[2]
  GI50: 1.83 µM
  TGI: 11.5 µM
[3]
  GI50: 2.53 µM
  TGI: > 100 µM
[4]
  GI50: 2.6 µM
  TGI: 10.4 µM
[59]
  GI50: 4.3 µM
  TGI: > 100 µM
[5]
  GI50: 3.49 µM
  TGI: 13.5 µM
[6]
  GI50: 3.04 µM
  TGI: 13.5 µM
[7]
  GI50: 2.43 µM
  TGI: 7.67 µM
[8]
  GI50: 3.63 µM
  TGI: > 100 µM
[9]
  GI50: 2.05 µM
  TGI: 5.8 µM
[10]
  GI50: 2.71 µM
  TGI: 10.9 µM
[11]
  GI50: 3.81 µM
  TGI: > 100 µM
[12]
  GI50: 1.9 µM
  TGI: 10.8 µM
[13]
  GI50: 2.56 µM
  TGI: 9.27 µM
[14]
  GI50: 4.17 µM
  TGI: 16.9 µM
[15]
  GI50: 3.45 µM
  TGI: 13.8 µM
[16]
  GI50: 2.15 µM
  TGI: 6.51 µM
[17]
  GI50: 3.2 µM
  TGI: 8.61 µM
[18]
  GI50: 3.01 µM
  TGI: > 100 µM
[19]
  GI50: 3.68 µM
  TGI: 23.4 µM
[20]
  GI50: 3.86 µM
  TGI: 89.5 µM
[21]
  GI50: 3.22 µM
  TGI: 12.8 µM
[22]
  GI50: 5.53 µM
  TGI: 26.7 µM
[23]
  GI50: 2.66 µM
  TGI: > 100 µM
[24]
  GI50: 2.89 µM
  TGI: > 100 µM
[25]
  GI50: 3.5 µM
  TGI: 17.6 µM
[26]
  GI50: 3.16 µM
  TGI: 25.3 µM
[27]
  GI50: 2.74 µM
  TGI: > 100 µM
[28]
  GI50: 2.95 µM
  TGI: 12.4 µM
[29]
  GI50: 2.6 µM
  TGI: 16.4 µM
[30]
  GI50: 1.34 µM
  TGI: 3.3 µM
[31]
  GI50: 2.49 µM
  TGI: 12.1 µM
[32]
  GI50: 1.96 µM
  TGI: 6.4 µM
[33]
  GI50: 3.4 µM
  TGI: 14.8 µM
[34]
  GI50: 3.33 µM
  TGI: 12.9 µM
[35]
  GI50: 3.4 µM
  TGI: 14.2 µM
[36]
  GI50: 2.73 µM
  TGI: 8.64 µM
[37]
  GI50: 2.19 µM
  TGI: 8.15 µM
[38]
  GI50: 2.78 µM
  TGI: 21.2 µM
[39]
  GI50: 2.53 µM
  TGI: 15.2 µM
[40]
  GI50: 2.68 µM
  TGI: 8.93 µM
[41]
  GI50: 2.39 µM
  TGI: 11.2 µM
[42]
  GI50: 3.45 µM
  TGI: 16.5 µM
[43]
  GI50: 2.68 µM
  TGI: 9.82 µM
[44]
  GI50: 2.42 µM
  TGI: 7.46 µM
[45]
  GI50: 3.04 µM
  TGI: 13.4 µM
[46]
  GI50: 3.34 µM
  TGI: 15.4 µM
[47]
  GI50: 2.5 µM
  TGI: 11.9 µM
[48]
  GI50: 2.88 µM
  TGI: 12.6 µM
[49]
  GI50: 2.94 µM
  TGI: 11 µM
[50]
  GI50: 2.33 µM
  TGI: > 100 µM
[51]
  GI50: 3.27 µM
  TGI: > 100 µM
[52]
  GI50: 2.1 µM
  TGI: 12.9 µM
[53]
  GI50: 1.23 µM
  TGI: 3.18 µM
[54]
  GI50: 3.46 µM
  TGI: 23.2 µM
[55]
  GI50: 2.83 µM
  TGI: 12.3 µM
[56]
  GI50: 2.39 µM
  TGI: 18.7 µM
[58]
  GI50: 2.71 µM
  TGI: > 100 µM
